In brackets after ≈: the same amount, converted by molar mass. Entries after “also recorded” stand apart in the source; their conditions may differ. Where two headings read alike, the source gives them in different places.
How the values were obtained:
[1] = Solubility of the compound in aqueous solutions and in 50% methanol-water at various pH; format: physicochemical
From the text: On the other hand, if the drug is exposed to the relatively alkaline portions of the intestinal tract, i.e., a pH greater than 7.5, the drug remains undissolved and is unavailable for absorption in humans.

[2] = Absorption into the bloodstream (general statement); details: uncoated drug; degradation at low pH in the stomach
[3] = Acid hydrolysis / half-life of the compound at various pH and temperature; format: physicochemical; details: for half-life: 50% methanol-water
From the text: However, paradoxically, under the acidic conditions of maximum dissolution and absorption, the drug substance is itself the most labile from a chemical point of view. As previously indicated, the compound belongs to a class of enamines that are readily hydrolyzed under acidic aqueous conditions.

[4] = Anti-psychotic properties and liabilities (general statement)

Which “solubility” value ([1]; 50% methanol-water system, pH 8.0) does the source give for CN1CCN(C2=Cc3cc(Cl)ccc3Oc3ccccc32)CC1 [1-(2-Chlorodibenzo[b,f]oxepin-10-yl)-4-methylpiperazine] here?
The value was “totally insoluble”.

What about the solubility ([1]; aqueous solution, pH 1.0, read-out: solubility) of the same compound?
Its solubility is 20000 µg/mL (≈ 61.2 mM).

What about the solubility ([1]; aqueous solution, pH 3.0, read-out: solubility) of the same compound?
The solubility was 15000 µg/mL (≈ 45.9 mM).

What about the solubility ([1]; aqueous solution, pH 4.3, read-out: solubility) of the same compound?
The solubility was 4000 µg/mL (≈ 12.2 mM).

What about the “solubility” value ([1]; aqueous solutions, pH greater than 7.5) of the same compound?
Its value is “insoluble”.

And the solubility ([1]; organic solvent or mixture, 50% methanol-water system, pH 7.0, read-out: solubility)?
The solubility was 2000 µg/mL (≈ 6.12 mM).

What about the “absorption into the bloodstream” value [2] of the same compound?
The value was “poor and erratic absorption”.

What about the half-life ([3]; pH 1.5, 25° C., pH 1.5, 50% (v/v) methanol-water) of the same compound?
Its half-life is 0.12 h.

And the half-life ([3]; pH 1.5, 37° C., pH 1.5)?
The half-life was 0.12 h.

And the half-life ([3]; pH 6, 25° C., pH 6.0, 50% (v/v) methanol-water)?
The half-life was 269 h.

And the half-life ([3]; pH 6, 37° C., pH 6.0)?
The half-life was 159 h.

And the acid lability ([3]; aqueous conditions)?
Its acid lability is “high degree of acid lability”.

And the anti-psychotic properties [4]?
Its anti-psychotic properties is “potent anti-psychotic properties; also recorded: particularly useful antipsychotic properties”.

What about the cardiovascular liabilities [4] of the same compound?
Its cardiovascular liabilities is “minimal”.

What about the extrapyramidal liabilities [4] of the same compound?
Its extrapyramidal liabilities is “minimal”.

Source: patent publication US4180559A, “Coated 1-(2-chlorodibenzo[b,f]oxepin-10-yl)-4-methylpiperazine compositions” (Richardson-Merrell Inc., priority 1978, dated 1979)
